The text below walks through data of ChEMBL document CHEMBL1125491, “Potential prodrug derivatives of 2',3'-didehydro-2',3'-dideoxynucleosides. Preparations and antiviral activities” (J Med Chem, 1992).

The test system of assay [1] is Human immunodeficiency virus 1. In words: Concentration required to protect 50% of HIV-1 infected MT-4 cells against viral cytopathicity. It counts as functional, organism-based. As to conditions: Human immunodeficiency virus 1, MT4. A general note: Protection from cytopathic effect is a common read-out in antiviral testing.
In assay [2] the test system is Human immunodeficiency virus 2. In words: Concentration required to protect 50% of HIV-2 infected MT-4 cells against viral cytopathicity. As to conditions: Human immunodeficiency virus 2, MT4. The format is functional, organism-based.
Another assay deals with MT4. In words: Concentration required to reduce the number of viable uninfected MT-4 cells by 50%. It counts as functional. As to conditions: Homo sapiens.

The structures appear in SMILES notation.

Consider `Nc1ncnc2c1ncn2C1C=CC(COP(=O)(O)Oc2ccccc2)O1` (stereo unspecified), for which the EC50 in assay [1] came out at 24 µM; in assay [2], 37 µM. In the assay on MT4, this molecule registered a 50% cytotoxic concentration (CC50) of 157 µM.

For the molecule `Nc1ccn(C2C=CC(COP(=O)(O)Oc3ccccc3)O2)c(=O)n1` (stereo unspecified), the results for the concentration for a half-maximal effect (EC50) in assay [1] and in assay [2] were 1.9 µM and 1.5 µM, respectively. In the assay with MT4, this molecule gave a CC50 of 35 µM.

Turning to `CC1=CN([C@H]2C[C@H](OP(=O)(O)OC[C@@H]3C=C[C@H](n4ccc(N)nc4=O)O3)[C@@H](CO)O2)C(=O)NC1N` (stereo partly specified), the EC50 in assay [1] turned out to be 1.8 µM; in assay [2], 1.6 µM. In the assay with MT4, the 50% cytotoxic concentration (CC50) amounted to 28 µM.

Take `Nc1ccn([C@H]2CC[C@@H](CO)O2)c(=O)n1` [ZALCITABINE]: the EC50 in assay [1] is 0.91 µM; in assay [2], 0.69 µM. This molecule had a CC50 in the assay on MT4 of 30 µM.

Consider `Nc1ccn(C2C=CC(COP(=O)(O)c3ccccc3)O2)c(=O)n1` (stereo unspecified), for which the values for the 50% effective concentration (EC50) in assay [1] and in assay [2] were 111 µM and 136 µM, respectively. This molecule also showed a CC50 with MT4 above 500 µM.

`CC1=CN([C@H]2C[C@H](OP(=O)(O)OC[C@@H]3C=C[C@H](n4cnc5c(N)ncnc54)O3)[C@@H](CO)O2)C(=O)NC1N` (stereo partly specified): the EC50 was 26 µM in assay [1] and 29 µM in assay [2]. For the same molecule, in the assay with MT4, the midpoint of cytotoxicity, the CC50, lay at 198 µM.

`Nc1ncnc2c1ncn2C1C=CC(COP(O)(=S)c2ccccc2)O1` (stereo unspecified): the 50% effective concentration (EC50) in assay [1] and in assay [2] was above 500 µM each time. This molecule also had a CC50 in the assay on MT4 above 500 µM.

On to `Nc1ncnc2c1ncn2C1C=CC(COP(=O)(O)c2ccccc2)O1` (stereo unspecified), for which the EC50 in assay [1] and in assay [2] was above 500 µM in each case. Also, the CC50 in the assay with MT4 was above 500 µM.

Take `COP(=O)(O)OCC1C=CC(n2cnc3c(N)ncnc32)O1` (stereo unspecified): the concentration for a half-maximal effect (EC50) turned out to be 38 µM in assay [1] and 58 µM in assay [2]. The cytotoxic concentration (CC50) in the assay on MT4 is 168 µM.

Take `COP(=O)(O)OCC1C=CC(n2ccc(N)nc2=O)O1` (stereo unspecified): the concentration giving a half-maximal response (EC50) in assay [1] was determined as 3.1 µM; in assay [2], 1.7 µM. For the same molecule, half-maximal cytotoxicity with MT4 (CC50) was put at 27 µM.

Turning to `Nc1ccn(C2C=CC(COP(O)(=S)c3ccccc3)O2)c(=O)n1` (stereo unspecified), the half-maximal effective concentration (EC50) in assay [1] and in assay [2] was above 500 µM throughout. This molecule returned a CC50 with MT4 above 500 µM.

On to `Nc1ncnc2c1ncn2[C@H]1CC[C@@H](CO)O1`, for which the EC50 in assay [1] is 41 µM; in assay [2], 72 µM. In the assay with MT4, this molecule showed a CC50 above 100 µM.

A word on the EC50: it is the midpoint of the concentration-response curve. Broadly, the CC50 is the concentration at which the toxic effect on the cells reaches its halfway point. Low readings indicate harm at low concentration, high ones better tolerance by the cells.
